For data set [1], the target named is T1, Sodium-dependent serotonin transporter (Homo sapiens, UniProt P31645). Kind of data set: Inhibition of human SERT expressed in JAR cells assessed as serotonin uptake at 6 uM. Format: cell-based.
Target sequence in this assay (P31645 whole entry, looked up): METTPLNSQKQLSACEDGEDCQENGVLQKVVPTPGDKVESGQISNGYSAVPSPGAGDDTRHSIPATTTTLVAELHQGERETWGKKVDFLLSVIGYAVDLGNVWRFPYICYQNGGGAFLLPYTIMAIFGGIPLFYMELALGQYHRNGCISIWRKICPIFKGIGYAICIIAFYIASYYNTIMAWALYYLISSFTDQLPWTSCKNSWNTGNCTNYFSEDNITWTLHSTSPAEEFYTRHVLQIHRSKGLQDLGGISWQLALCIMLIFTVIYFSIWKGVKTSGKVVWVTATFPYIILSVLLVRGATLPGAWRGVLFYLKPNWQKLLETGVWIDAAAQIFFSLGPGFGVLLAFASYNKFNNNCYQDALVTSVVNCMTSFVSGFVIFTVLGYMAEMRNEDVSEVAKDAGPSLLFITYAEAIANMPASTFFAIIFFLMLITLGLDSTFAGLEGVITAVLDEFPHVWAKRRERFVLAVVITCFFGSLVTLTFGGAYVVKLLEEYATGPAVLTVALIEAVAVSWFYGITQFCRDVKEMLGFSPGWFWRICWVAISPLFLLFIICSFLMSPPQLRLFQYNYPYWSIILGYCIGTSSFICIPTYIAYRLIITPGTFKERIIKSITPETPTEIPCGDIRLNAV
For data set [2], the target named is T1, Sodium-dependent serotonin transporter. Format: cell-based, JAR.
Target sequence in this assay (P31645 whole entry): as the sequence (P31645 whole entry, looked up) above
The target of data set [3] is T2, Sodium-dependent noradrenaline transporter (Homo sapiens, UniProt P23975). Kind of data set: biochemical.
Data set [4] concerns the target T3, Sodium-dependent dopamine transporter (Homo sapiens, UniProt Q01959). Kind of data set: Displacement of [3H]-WIN-35428 from human DAT expressed in CHO cells at 1 uM. Format: cell-based.
For data set [5], the target named is T2, Sodium-dependent noradrenaline transporter.
In data set [6] the target is T3, Sodium-dependent dopamine transporter. Kind of data set: biochemical.
Data set [7] in a line: Half life in rat at 10 mg/kg, po. Further details: dose 10 mg/kg, route oral. The following applies: in vivo. The format is ADME, organism-based.
The nature of data set [8]: AUC (0 to infinity) in rat at 10 mg/kg, po. The format is ADME, organism-based. The arrangement: time infinity, dose 10 mg/kg, route oral. The note with it: plasma.
The subject of data set [9] is Rattus norvegicus. Kind of data set: Increase of serotonin level in Sprague-Dawley rat medial prefrontal cortex at 30 mg/kg, po by microdialysis assay. The format is functional, organism-based. The arrangement: dose 30 mg/kg.
The nature of data set [10]: Half life in rat at 2 mg/kg, iv. The arrangement: dose 2 mg/kg, route intravenous. The note with it: in vivo. The format is ADME, organism-based.
A short description of data set [11]: Ratio of drug level in brain to plasma in rat. Format: ADME. The following applies: read-out: BPR.
Data set [12] has as its system Rattus norvegicus. Kind of data set: Analgesic activity in Sprague-Dawley rat thermally-stimulated acute pain model assessed as increase in latency to nocicfensive response at 30 mg/kg, po after 1 to 5 hrs by hot plate assay. Format: functional, organism-based. The arrangement: dose 30 mg/kg.
The species named for data set [13] is Homo sapiens. Description: Selectivity ratio of IC50 for human NET over IC50 for human SERT.
Data set [14] relates to Rattus norvegicus. Description: Analgesic activity against FCA-induced mechanical hyperalgesia in Sprague-Dawley rat assessed as threshold to paw withdrawal at 3 mg/kg, po administered 24 hrs after FCA challenge measured after 5 hrs. Format: functional, organism-based. Further details: dose 3 mg/kg.
The nature of data set [15]: Plasma clearance in rat at 2 mg/kg, iv. The format is ADME, organism-based. The arrangement: dose 2 mg/kg, route intravenous.
Data set [16] can be described thus: AUC (0 to infinity) in rat at 2 mg/kg, iv. Further details: time infinity, dose 2 mg/kg, route intravenous. The following applies: plasma. The format is ADME, organism-based.
Data set [17] in a line: Cmax in rat at 10 mg/kg, po. The note with it: in vivo. The format is ADME, organism-based. Further details: dose 10 mg/kg, route oral.
Data set [18] concerns Rattus norvegicus. Description: Analgesic activity against spinal nerve ligation-induced mechanical hyperalgesia in po dosed Sprague-Dawley rat assessed as threshold to paw withdrawal. The format is functional, organism-based.
The species named for data set [19] is Homo sapiens. Description: Selectivity ratio of IC50 for human NET over IC50 for human DAT.
In data set [20] the test system is Rattus norvegicus. Description: Analgesic activity against carrageenan-induced hyperalgesia in Sprague-Dawley rat assessed as increase in paw withdrawal latency at 10 mg/kg, po after 4 hrs carrageenan challenge. The arrangement: dose 10 mg/kg. Format: functional, organism-based.
Data set [21] can be described thus: Oral bioavailability in rat at 10 mg/kg. The format is ADME, organism-based. The following applies: in vivo.
Data set [22] deals with Rattus norvegicus. Description: Analgesic activity against FCA-induced mechanical hyperalgesia in Sprague-Dawley rat assessed as threshold to paw withdrawal at 3 mg/kg, po administered 24 hrs after FCA challenge measured after 3 hrs. Format: functional, organism-based. The arrangement: dose 3 mg/kg.
Data set [23] is described as follows: Tmax in rat at 10 mg/kg, po. The format is ADME, organism-based. The arrangement: dose 10 mg/kg, route oral. The note with it: in vivo.
For data set [24], the system named is Rattus norvegicus. Description: Analgesic activity against carrageenan-induced hyperalgesia in Sprague-Dawley rat assessed as increase in paw withdrawal latency at 30 mg/kg, po after 4 hrs carrageenan challenge. Format: functional, organism-based. Further details: dose 30 mg/kg.
The nature of data set [25]: Volume of distribution at steady state in rat at 2 mg/kg, iv. The following applies: in vivo, read-out: Vdss. The arrangement: dose 2 mg/kg, route intravenous. Format: ADME, organism-based.
For data set [26], the system named is Rattus norvegicus. Kind of data set: Increase of norepinephrine level in Sprague-Dawley rat medial prefrontal cortex at 30 mg/kg, po by microdialysis assay relative to baseline. Format: functional.
For data set [27], the system named is Rattus norvegicus. Kind of data set: Analgesic activity in Sprague-Dawley rat thermally-stimulated acute pain model assessed as increase in latency to nocicfensive response at 10 mg/kg, po after 1 to 5 hrs by hot plate assay. The format is functional, organism-based. Further details: dose 10 mg/kg.

The source made the active and inactive calls.

T2 sequence (P23975 whole entry): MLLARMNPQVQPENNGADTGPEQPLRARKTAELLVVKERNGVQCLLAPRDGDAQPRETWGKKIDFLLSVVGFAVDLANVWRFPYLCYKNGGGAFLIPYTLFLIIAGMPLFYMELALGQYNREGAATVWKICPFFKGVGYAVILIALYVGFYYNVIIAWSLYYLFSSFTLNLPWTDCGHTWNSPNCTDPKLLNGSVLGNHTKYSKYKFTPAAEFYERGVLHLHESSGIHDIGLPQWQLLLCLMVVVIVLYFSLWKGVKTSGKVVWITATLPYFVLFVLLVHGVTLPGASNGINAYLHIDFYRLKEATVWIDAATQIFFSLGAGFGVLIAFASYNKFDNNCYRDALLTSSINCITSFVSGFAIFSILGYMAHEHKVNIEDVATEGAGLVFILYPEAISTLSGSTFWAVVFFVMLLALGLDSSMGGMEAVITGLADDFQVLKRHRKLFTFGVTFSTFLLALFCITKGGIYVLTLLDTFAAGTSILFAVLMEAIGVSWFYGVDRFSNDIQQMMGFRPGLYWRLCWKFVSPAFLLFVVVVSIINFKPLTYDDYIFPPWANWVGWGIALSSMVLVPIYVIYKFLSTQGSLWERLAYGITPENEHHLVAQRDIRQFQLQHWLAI
T3 sequence (Q01959 whole entry): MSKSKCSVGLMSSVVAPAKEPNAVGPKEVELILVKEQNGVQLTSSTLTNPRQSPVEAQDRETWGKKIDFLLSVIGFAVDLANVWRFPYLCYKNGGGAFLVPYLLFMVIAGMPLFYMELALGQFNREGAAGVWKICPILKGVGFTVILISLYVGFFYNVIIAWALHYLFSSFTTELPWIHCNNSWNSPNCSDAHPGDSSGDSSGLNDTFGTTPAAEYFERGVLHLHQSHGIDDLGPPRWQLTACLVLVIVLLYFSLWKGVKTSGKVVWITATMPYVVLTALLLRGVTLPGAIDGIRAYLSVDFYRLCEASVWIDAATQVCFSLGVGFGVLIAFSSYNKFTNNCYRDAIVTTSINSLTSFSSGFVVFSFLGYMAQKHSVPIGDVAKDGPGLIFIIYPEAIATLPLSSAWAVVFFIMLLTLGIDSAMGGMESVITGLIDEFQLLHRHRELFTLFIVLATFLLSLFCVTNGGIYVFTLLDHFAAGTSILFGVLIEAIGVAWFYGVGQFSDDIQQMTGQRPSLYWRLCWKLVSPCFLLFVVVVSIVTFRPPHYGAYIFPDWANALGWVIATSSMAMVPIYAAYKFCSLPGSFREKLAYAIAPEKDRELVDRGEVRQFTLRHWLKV

With `CNC[C@H](O)CCN1c2ccccc2N(c2ccccc2F)S1(=O)=O`, in [1], the inhibition stood at 28%.

On to `CNC[C@@H](CCN1c2ccccc2N(c2ccccc2)S1(=O)=O)OC`, for which the IC50 in data set [2] amounted to 5100 nM; in [3], 13 nM. In [4], this compound came in with an inhibition of 39%.

With `O=S1(=O)N(CC2CNCCO2)c2ccccc2N1c1ccccc1` (racemic), the inhibition in data set [1] came out at 0%; in data set [4], 32%. Besides, the results for the IC50 in data set [3] and in data set [5] were 74 nM and 147 nM, respectively.

For the compound `O=S1(=O)N(CCC2CNCCO2)c2c(F)cccc2N1c1ccccc1F` (configuration not stated), the IC50 in data set [2] was 992 nM; in data set [3] it was 5 nM; in [5], 22 nM. Also, the inhibition in [4] came out at 50%.

Consider `O=S1(=O)N(CC[C@@H]2CNCCO2)c2ccccc2N1c1ccc(F)cc1`, for which the IC50 amounted to 283 nM in data set [3] and 211 nM in data set [6].

For the compound `O=S1(=O)N(CCC2CCCNC2)c2ccccc2N1c1ccccc1` (racemic), the IC50 in data set [2] is 2980 nM; in data set [3] it was 30 nM; in data set [5] it was 54 nM. Besides, the inhibition in data set [4] stood at 95%.

As for `O=S1(=O)N(CC[C@@H]2CNCCO2)c2ccccc2N1c1ccccc1F`, the half-life in data set [7] and in data set [10] was 1.8 h each time. In addition, the results for the AUC(0-inf) in data set [8] and in [16] were 1320 ng·h/mL and 958 ng·h/mL, respectively. For the same compound, the result in data set [9] was inactive. For the same compound, the Kp in [11] worked out at 3.9. The outcome in data set [12], in data set [14], in data set [20], in [22], in data set [24] and in [27] was Active. The Ratio IC50 in [13] was greater than 430; in data set [19], greater than 548. For the same compound, the values for the IC50 in data set [2], in data set [3] and in data set [5] were 6410 nM, 5 nM and 15 nM, respectively. For the same compound, the clearance in [15] was 38 mL/min/kg. The compound further had a Cmax in data set [17] of 373 ng/mL. The Activity result is “Dose-dependent effect” in data set [18] and 390% in data set [26]. Also, in data set [21], the bioavailability was found to be 28%. The Tmax in data set [23] came to 1 h. Also, in data set [25], the Vd worked out at 5 L/kg.

For `O=S1(=O)N(CCC2CNCCO2)c2cccc(F)c2N1c1ccccc1F` (configuration not stated), the IC50 in data set [2] was found to be 5790 nM; in [3], 13 nM; in [5], 7 nM. For the same compound, the inhibition in data set [4] is 20%.

As for `COc1cccc(N2c3ccccc3N(CC[C@@H]3CNCCO3)S2(=O)=O)c1`, the IC50 was 749 nM in [2] and 99 nM in data set [3].

For the compound `O=S1(=O)N(CCC2CNCCO2)c2cc(F)ccc2N1c1ccccc1F` (configuration not stated), the IC50 in [2] was 8350 nM; in data set [3] it was 8 nM; in data set [5], 14 nM. In data set [4], this compound yielded an inhibition of 43%.

On to `CNC[C@H](CCN1c2ccccc2N(c2ccccc2)S1(=O)=O)OC`, for which the inhibition in [1] was found to be 52%. The IC50 in data set [3] was 103 nM; in data set [6], 1040 nM.

On to `O=S1(=O)N(CC[C@@H]2CNCCO2)c2ccccc2N1c1ccc(F)cc1F`, for which the IC50 amounted to 4130 nM in [2], 143 nM in [3] and 2040 nM in data set [6].

Consider `O=S1(=O)N(CCC2CNCCO2)c2ccc(F)cc2N1c1ccccc1F` (configuration not stated), for which the IC50 in data set [2] worked out at 806 nM; in data set [3], 209 nM; in data set [5], 120 nM. This compound also showed an inhibition in data set [4] of 23%.

`O=S1(=O)N(C[C@H]2CNCCO2)c2ccccc2N1c1ccccc1`: in [6], it took 341 nM to reach half-maximal inhibition (IC50).

As for `O=S1(=O)N(CC[C@@H]2CNCCO2)c2ccccc2N1c1c(F)cc(F)cc1F`, the results for the IC50 in [2] and in [3] were 1400 nM and 80 nM, respectively.

With `O=S1(=O)N(CC[C@@H]2CNCCO2)c2ccccc2N1c1ccccc1`, the inhibition in data set [1] amounted to 55%. For the same compound, the IC50 was found to be 6770 nM in data set [2] and 5 nM in data set [3].

With `O=S1(=O)N(CCC2CNCCO2)c2ccccc2N1c1ccccc1` (racemic), the IC50 in data set [2] worked out at 1780 nM; in data set [3], 7 nM; in data set [6] it was 964 nM.

For `O=S1(=O)N(CC[C@H]2CNCCO2)c2ccccc2N1c1ccccc1`, the inhibition in data set [1] came to 68%. Further, the figures for the IC50 in [2] and in data set [3] were 1030 nM and 9 nM, respectively.

Consider `CN1CCOC(CN2c3ccccc3N(c3ccccc3)S2(=O)=O)C1` (racemic), for which the IC50 in data set [3] was found to be 2300 nM. Further, the inhibition in data set [4] is 77%.

For the compound `O=S1(=O)N(C[C@@H]2CNCCO2)c2ccccc2N1c1ccccc1`, half-maximal inhibition in data set [6] (IC50) was put at 792 nM.

The values are drawn from ChEMBL document CHEMBL1828571, “Discovery of novel selective norepinephrine inhibitors: 1-(2-morpholin-2-ylethyl)-3-aryl-1,3-dihydro-2,1,3-benzothiadiazole 2,2-dioxides (WYE-114152)” (J Med Chem, 2011).
